This note sets out measurements from patent publication US10729666B2, “Use of GABAA receptor reinforcing agent in preparation of sedative and anesthetic medicament” (Sichuan Haisco Pharmaceutical Co., Ltd., priority 2014, dated 2020).

Data set [1] is described as follows: Righting reflex experiment on mice. The note with it: both, ICR, mouse, in vivo, iv. How it is done:
(§1) LD5 (5% lethal dose): dose required to cause 5% of animals to die in a test.
(§2) If a normal animal was able to immediately body-right after being pushed over or made lying on its back, such a reflex was determined as the righting reflex. Otherwise, loss of the righting reflex and the time of loss were recorded, and a reflex recovery time was recorded when the animal restored the righting reflex. The period from finishing of drug administration until loss of the righting reflex was recorded as the anesthesia induction time, and the period from loss of the righting reflex until recovery of the righting reflex was recorded as the anesthesia maintenance time.
(§3) TI (therapeutic index, i.e. LD50/ED50), SI (safety index, i.e. LD5/ED95).
(§4) MTD (maximum tolerated dose): the maximum dose able to cause 100% of animals to loss the righting index without death.
(§5) Indicators such as median effective dose (ED50), median lethal dose (LD50), therapeutic index (TI, i.e. LD50/ED50), safety index (SI, i.e. LD5/ED95), anesthesia induction time, anesthesia maintenance time, and maximum tolerated dose (MTD) were used to evaluate the effect and safety of anesthesia. […] After adapting to the laboratory environment, laboratory animals were fasted for 12 hours. On the next day, administration was carried out at 10 mg/kg body weight. Upon intravenous injection, the time of loss of the righting reflex was recorded. The period from finishing of drug administration until loss of the righting reflex was recorded as the anesthesia induction time, and the period from loss of the righting reflex until recovery of the righting reflex was recorded as the anesthesia maintenance time. The anesthesia induction time and the anesthesia maintenance time were used to indicate how strong an anesthetic effect was. Meanwhile, the dose required to cause a 7-min anesthesia (HD7) was measured and used to evaluate relative efficacy.

Another data set has as its system ICR mice. Put plainly: Righting reflex experiment on mice. The note with it: for HD7 / Anesthesia induction time / Anesthesia maintenance time / SI / TI: intravenous; for HD7: dose required to cause a 7-min anesthesia; for Anesthesia induction time: end of administration until loss of righting reflex; for Anesthesia maintenance time: loss until recovery of righting reflex; for ED50: Mus musculus, iv; for SI: safety index, LD5/ED95; for TI: therapeutic index, LD50/ED50. As for the experimental part: as §1, §2, §3, §4, §5

In the next data set the test system is healthy male volunteers. Description: Preliminary pharmacodynamic studies with healthy humans. The data set is classed as in vivo. The note with it: single intravenous injection of the emulsion injection. As for the experimental part: The subjects were fasted during the night for 6 hours or longer. The Emulsion injection of Compound 7 was administered by single intravenous injection. Groups 1 and 2 were administered by manual push injection for 2 to 3 seconds, and Groups 3-8 were administered by constant-rate pump injection for more than 1 min.
Primary indices include RASS and the tolerance to pain during injection (Verbal rating scale (VRS) was used to allow the researchers to know the pain degree of subjects); and secondary indices include cardiovascular indices and EEG (electroencephalogram) and BIS (Bispectral index) associated with the cognitive function recovery evaluation (QoR-40).

In data set [1], `CC(C)c1cccc(C(C)C2CC2)c1O` (racemic) [Compound 1, 2-(1-cyclopropylethyl)-6-isopropylphenol] gave an MTD of 10 mg/kg. In the data set on ICR mice (ICR mice), this molecule had an HD7 of 6.0 mg/kg, an Anesthesia induction time of less than 15.0 s, an Anesthesia maintenance time of 660.4 s and an SI of 1.7. Further, the TI with ICR mice (ICR mice) was 6.1. Further, in the data set with ICR mice, the 50% effect level (ED50) was put at a dose of 3.7 mg/kg.
As to `CC(C)c1cccc([C@H](C)C2CC2)c1O` [Compound 7, 2-[(1R)-1-cyclopropylethyl]-6-isopropyl-phenol], the “dose with which subjects started showing light anesthesia” value with healthy male volunteers was determined as 0.128 mg/kg.
Turning to `CC(C)c1cccc([C@@H](C)C2CC2)c1O` [Compound 8, 2-[(1S)-1-cyclopropylethyl]-6-isopropyl-phenol], in data set [1], the LD50 (usually the dose expected to kill half of the subjects tested) was 43.6 mg/kg and the MTD worked out at 20 mg/kg. In the data set with ICR mice (ICR mice), this molecule gave an Anesthesia induction time of less than 15.0 s, an Anesthesia maintenance time of 1031.6 s, an SI of 3.5 and a TI of 7.5. Further, it took a dose of 5.8 mg/kg to reach the 50% effect level with ICR mice (ED50).
For the molecule `C[C@H](c1cccc([C@H](C)C2CC2)c1O)C1CC1` [Compound 9, 2-[(1S)-1-cyclopropylethyl]-6-[(1R)-1-cyclopropylethyl]phenol], the HD7 in the data set on ICR mice (ICR mice) is on record as 2.5 mg/kg.
For the molecule `C[C@@H](c1cccc([C@H](C)C2CC2)c1O)C1CC1` [Compound 10, 2,6-bis[(1R)-1-cyclopropylethyl]phenol], the MTD in data set [1] was found to be 5 mg/kg. Moreover, the 50% lethal dose (LD50) in the data set on ICR mice (ICR mice, intravenous injection, solvent 10% DMSO, 15% solutol HS15, 75% saline) came out at 6.3 mg/kg. Moreover, in the data set on ICR mice (ICR mice), the Anesthesia maintenance time came out at 754.4 s, the SI is recorded as 3.8 and the TI is given as 4.1. Moreover, the ED50 – broadly, the midpoint of the dose-response relation – in the data set on ICR mice amounted to 1.5 mg/kg.
